SMILES strings stand for the structures. pIC50: −log10 of the molar value. Where two headings read alike, the source gives them in different places.

Assay [1] has as its target T1, recombinant integrin α4β7 (Homo sapiens, UniProt P13612+P26010, DEL724-798).
T1 construct: purchased R&D Systems 5397-A3-050
T1 sequence (P13612 34-970 limits assumed): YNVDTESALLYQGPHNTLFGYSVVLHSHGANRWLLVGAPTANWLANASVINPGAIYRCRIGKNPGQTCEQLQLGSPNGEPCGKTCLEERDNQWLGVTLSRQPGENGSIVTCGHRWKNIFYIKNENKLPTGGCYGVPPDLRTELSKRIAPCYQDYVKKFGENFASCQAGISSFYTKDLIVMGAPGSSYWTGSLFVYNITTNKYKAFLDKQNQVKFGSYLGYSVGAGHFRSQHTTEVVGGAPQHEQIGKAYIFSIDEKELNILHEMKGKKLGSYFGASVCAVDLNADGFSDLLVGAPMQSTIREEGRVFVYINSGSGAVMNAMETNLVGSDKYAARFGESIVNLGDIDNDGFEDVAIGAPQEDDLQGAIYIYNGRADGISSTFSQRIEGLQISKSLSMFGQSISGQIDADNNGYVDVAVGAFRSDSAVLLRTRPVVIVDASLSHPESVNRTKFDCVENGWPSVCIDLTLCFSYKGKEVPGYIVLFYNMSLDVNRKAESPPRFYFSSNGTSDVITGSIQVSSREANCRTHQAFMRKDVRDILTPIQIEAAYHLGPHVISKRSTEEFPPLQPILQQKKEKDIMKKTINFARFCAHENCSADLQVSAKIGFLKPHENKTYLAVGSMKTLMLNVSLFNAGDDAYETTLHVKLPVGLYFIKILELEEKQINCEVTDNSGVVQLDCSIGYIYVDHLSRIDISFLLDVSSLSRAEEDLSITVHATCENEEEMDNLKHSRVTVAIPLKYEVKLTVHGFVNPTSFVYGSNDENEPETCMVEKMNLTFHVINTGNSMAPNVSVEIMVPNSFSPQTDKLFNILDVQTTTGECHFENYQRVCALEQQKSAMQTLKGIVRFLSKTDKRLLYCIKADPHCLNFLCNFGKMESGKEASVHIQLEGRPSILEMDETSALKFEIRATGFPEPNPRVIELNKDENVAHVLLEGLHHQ
T1 sequence (P26010 20-723 limits assumed): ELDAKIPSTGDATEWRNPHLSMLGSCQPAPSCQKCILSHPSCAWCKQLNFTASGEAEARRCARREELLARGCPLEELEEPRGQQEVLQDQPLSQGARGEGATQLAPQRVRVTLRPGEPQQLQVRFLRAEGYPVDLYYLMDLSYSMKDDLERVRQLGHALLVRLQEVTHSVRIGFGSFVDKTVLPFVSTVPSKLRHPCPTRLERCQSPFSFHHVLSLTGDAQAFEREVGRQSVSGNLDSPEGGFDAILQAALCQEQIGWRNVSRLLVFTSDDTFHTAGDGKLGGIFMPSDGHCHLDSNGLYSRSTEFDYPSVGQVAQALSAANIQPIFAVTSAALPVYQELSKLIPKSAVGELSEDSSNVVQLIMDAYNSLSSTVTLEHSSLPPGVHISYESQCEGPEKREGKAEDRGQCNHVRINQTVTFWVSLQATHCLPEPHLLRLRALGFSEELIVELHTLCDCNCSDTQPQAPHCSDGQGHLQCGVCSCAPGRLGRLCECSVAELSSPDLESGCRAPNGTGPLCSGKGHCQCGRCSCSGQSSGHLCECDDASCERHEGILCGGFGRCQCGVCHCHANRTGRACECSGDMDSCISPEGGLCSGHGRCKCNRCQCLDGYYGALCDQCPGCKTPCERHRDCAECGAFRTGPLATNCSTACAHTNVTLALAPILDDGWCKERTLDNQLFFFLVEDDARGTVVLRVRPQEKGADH
The assay is described as follows: Integrin α4β7—MAdCAM-1 ELISA competition assay. As to conditions: read-out: ELISA α4β7 Assay IC50. In kind it is binding. Background: ELISA stands for enzyme-linked immunosorbent assay.

Assay [2] addresses T2, integrin α4β1 (RAMOS human cells adhering to VCAM-1) (Homo sapiens, UniProt P05556+P13612).
T2 construct: Ramos cells, which express integrin α4β1; host or cells: RAMOS
The assay is described as follows: Integrin α4β1-VCAM cell adhesion assay (RAMOS cells). In kind it is cell-based. How it is done: Integrin α4β1-VCAM Cell Adhesion Assay
The plate was incubated overnight at 4° C. and washed twice with 150 μl per well wash buffer (0.05% Tween 20 in PBS), blocked with 250 μl per well blocking buffer (1% non-fat dry milk in PBS), for 1 hour at room temperature. During blocking step, RAMOS cells were resuspended at 10 million cells/ml in PBS containing […] and incubated at 37° C. for 30 min in a 50 ml tube. […] The plate was emptied by inverting and blotting on paper towels and washed manually twice with PBS. […] To calculate the dose response, the fluorescence value of control wells not containing cells was subtracted from each test well.

Assay [3] deals with T3, recombinant integrin α4β1 (Homo sapiens, UniProt P05556+P13612).
T3 construct: purchased R&D Systems 5397-A3-050
T3 sequence (P05556 21-728 limits assumed, one chain of several): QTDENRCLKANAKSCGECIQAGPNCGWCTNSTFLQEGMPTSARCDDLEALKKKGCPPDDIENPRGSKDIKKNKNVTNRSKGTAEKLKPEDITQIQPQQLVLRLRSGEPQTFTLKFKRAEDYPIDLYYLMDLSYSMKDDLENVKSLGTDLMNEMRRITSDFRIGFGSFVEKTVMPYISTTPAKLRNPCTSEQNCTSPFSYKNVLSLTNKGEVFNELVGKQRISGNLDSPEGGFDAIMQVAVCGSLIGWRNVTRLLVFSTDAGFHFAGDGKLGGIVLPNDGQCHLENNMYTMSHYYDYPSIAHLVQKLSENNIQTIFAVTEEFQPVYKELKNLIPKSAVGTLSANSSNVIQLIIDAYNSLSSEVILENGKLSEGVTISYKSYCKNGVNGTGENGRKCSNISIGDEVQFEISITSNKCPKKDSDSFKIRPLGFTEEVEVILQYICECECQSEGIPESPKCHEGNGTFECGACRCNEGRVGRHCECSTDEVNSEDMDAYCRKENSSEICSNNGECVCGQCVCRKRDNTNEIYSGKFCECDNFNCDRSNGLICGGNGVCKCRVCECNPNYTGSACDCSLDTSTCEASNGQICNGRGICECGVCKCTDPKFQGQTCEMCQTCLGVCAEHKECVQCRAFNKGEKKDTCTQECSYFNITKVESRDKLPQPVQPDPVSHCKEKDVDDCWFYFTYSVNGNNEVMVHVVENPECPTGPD
The assay is described as follows: Integrin α4β1—VCAM-1 competition ELISA. As to conditions: for ELISA Assay Ratio β1/β7: ratio of ELISA IC50s, α4β1 over α4β7; for pIC50: read-out: ELISA α4β1 Assay IC50. The class given is binding. The procedure, abridged:
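Compound dilutions added to coated plate and shaken at room temperature for 2 h (300 rpm) to binding equilibrium. Wash buffer: 50 mM Tris, 100 mM NaCl, 1 mM MnCl2, 0.05% Tween. Bound Fc-tagged ligand detected with anti-human IgG Fc-HRP, 1 h at room temperature.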

[4] abbreviates: Ramos cells adhering to VCAM, read-out: Ramos Adhesion α4β1/VCAM IC50.
Setting [5] is: ratio of cell adhesion IC50s, Ramos α4β1/VCAM over RPMI8866 α4β7/MAdCAM.

T2 sequence (P13612 34-1032): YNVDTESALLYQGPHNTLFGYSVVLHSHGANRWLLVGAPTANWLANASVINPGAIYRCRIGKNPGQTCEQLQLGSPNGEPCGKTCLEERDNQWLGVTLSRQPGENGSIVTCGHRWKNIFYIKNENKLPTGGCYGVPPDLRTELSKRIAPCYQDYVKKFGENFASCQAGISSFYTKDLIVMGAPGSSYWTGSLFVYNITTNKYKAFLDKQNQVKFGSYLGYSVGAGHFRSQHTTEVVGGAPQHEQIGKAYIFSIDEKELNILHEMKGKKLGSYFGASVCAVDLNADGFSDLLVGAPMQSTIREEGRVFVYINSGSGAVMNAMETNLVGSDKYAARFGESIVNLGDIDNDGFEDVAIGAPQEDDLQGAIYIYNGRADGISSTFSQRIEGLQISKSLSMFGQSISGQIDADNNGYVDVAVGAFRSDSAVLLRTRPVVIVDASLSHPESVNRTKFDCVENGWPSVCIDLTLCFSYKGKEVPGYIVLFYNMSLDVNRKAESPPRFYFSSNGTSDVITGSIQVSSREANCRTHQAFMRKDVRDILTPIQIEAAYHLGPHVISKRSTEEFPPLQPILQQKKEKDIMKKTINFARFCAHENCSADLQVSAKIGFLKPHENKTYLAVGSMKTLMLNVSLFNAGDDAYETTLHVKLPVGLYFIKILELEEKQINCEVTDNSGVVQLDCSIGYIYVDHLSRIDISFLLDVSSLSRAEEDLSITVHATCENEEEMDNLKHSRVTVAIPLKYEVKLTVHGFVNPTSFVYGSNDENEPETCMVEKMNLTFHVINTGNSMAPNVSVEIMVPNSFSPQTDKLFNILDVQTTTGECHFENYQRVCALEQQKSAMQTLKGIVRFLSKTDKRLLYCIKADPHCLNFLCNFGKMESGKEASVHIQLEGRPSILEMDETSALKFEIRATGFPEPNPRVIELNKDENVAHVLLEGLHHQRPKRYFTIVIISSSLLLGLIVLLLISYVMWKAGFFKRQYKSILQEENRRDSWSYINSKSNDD
T2 sequence (P05556 21-798): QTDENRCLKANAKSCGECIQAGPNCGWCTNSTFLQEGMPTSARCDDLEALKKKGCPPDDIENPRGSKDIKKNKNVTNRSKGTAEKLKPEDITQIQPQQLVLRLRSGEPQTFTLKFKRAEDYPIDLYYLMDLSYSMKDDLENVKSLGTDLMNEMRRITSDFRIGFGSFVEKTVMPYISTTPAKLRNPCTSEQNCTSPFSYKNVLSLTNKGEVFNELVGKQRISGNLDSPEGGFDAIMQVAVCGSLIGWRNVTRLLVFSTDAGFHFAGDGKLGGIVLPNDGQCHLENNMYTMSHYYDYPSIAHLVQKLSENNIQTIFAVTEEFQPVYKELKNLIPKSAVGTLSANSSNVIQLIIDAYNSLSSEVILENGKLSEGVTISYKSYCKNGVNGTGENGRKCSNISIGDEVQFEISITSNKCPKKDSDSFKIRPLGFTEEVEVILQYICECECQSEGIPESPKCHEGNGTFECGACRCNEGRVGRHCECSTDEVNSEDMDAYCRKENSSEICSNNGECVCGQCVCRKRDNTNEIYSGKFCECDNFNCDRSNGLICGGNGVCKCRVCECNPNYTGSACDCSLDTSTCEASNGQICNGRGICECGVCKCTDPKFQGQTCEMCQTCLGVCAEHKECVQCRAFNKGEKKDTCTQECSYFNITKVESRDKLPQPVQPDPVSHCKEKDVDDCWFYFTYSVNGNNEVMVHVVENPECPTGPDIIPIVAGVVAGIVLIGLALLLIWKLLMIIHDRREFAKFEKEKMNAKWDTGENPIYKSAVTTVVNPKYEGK

For the compound `CC(C)C[C@@H]1NC(=O)c2ccc(-c3ccc(N4CCN(C(=O)COCC(=O)N5CCN(c6ccc(-c7ccc8cc7CNC(=O)[C@@H]7CCCN7[C@H](C(=O)NC(C)(C)C)[C@H](C)NC(=O)[C@H]([C@@H](C)O)NC(=O)[C@H](CC(=O)O)NC(=O)[C@H](CC(C)C)NC8=O)cc6)CC5)CC4)cc3)c(c2)CNC(=O)[C@@H]2CCCN2[C@H](C(=O)NC(C)(C)C)[C@H](C)NC(=O)[C@H]([C@@H](C)O)NC(=O)[C@H](CC(=O)O)NC1=O` [Compound 390], the results for the pIC50 in assay [1], in assay [2] (setting [4]) and in assay [3] were 8.08, 6.07 and 8.70, respectively. The “Ratio Ramos/RPMI” value in assay [2] (setting [5]) is on record as 66. The “ELISA Assay Ratio β1/β7” value in assay [3] amounted to 0.2.

As for `CC(C)C[C@@H]1NC(=O)c2ccc(-c3ccc(N4CCN(C(=O)CCCCCCCCCCC(=O)N5CCN(c6ccc(-c7ccc8cc7CNC(=O)[C@@H]7CCCN7[C@H](C(=O)NC(C)(C)C)[C@H](C)NC(=O)[C@H]([C@@H](C)O)NC(=O)[C@H](CC(=O)O)NC(=O)[C@H](CC(C)C)NC8=O)cc6)CC5)CC4)cc3)c(c2)CNC(=O)[C@@H]2CCCN2[C@H](C(=O)NC(C)(C)C)[C@H](C)NC(=O)[C@H]([C@@H](C)O)NC(=O)[C@H](CC(=O)O)NC1=O` [Compound 392], the pIC50 was 7.74 in assay [1], 5.73 in assay [2] (setting [4]) and 8.20 in assay [3]. In assay [2] (setting [5]), the “Ratio Ramos/RPMI” value was determined as 65. For the same compound, the “ELISA Assay Ratio β1/β7” value in assay [3] amounted to 0.3.

Consider `CC(C)C[C@@H]1NC(=O)C[C@H](CCCCN)N(C)C(=O)[C@H](CCCCN)NC(=O)[C@@H]2CCCN2[C@H](C(=O)NC(C)(C)C)[C@H](C)NC(=O)[C@H]([C@@H](C)O)NC(=O)[C@H](CC(=O)O)NC1=O` [Compound 456], for which the “selectivity α4β7 versus α4β1 cell adhesion assays” value in assay [2] (RPMI8866 vs Ramos cell adhesion) is recorded as 45 fold. In addition, the pIC50 in assay [2] (Ramos cells, VCAM, read-out: Ramos Adhesion a4b1/VCAM IC50) was 5.05. Also, the “Ratio Ramos/RPMI” value in assay [2] (ratio of Ramos a4b1/VCAM adhesion IC50 to RPMI8866 a4b7/MAdCAM adhesion IC50) stood at 45. The “ELISA Assay Ratio b1/b7” value in assay [3] (ratio of ELISA IC50 b1 to b7) was 1.5.

Turning to `CC(C)C[C@@H]1NC(=O)c2ccc(-c3ccc(N4CCN(C(=O)[C@H]5CCC[C@H]5C(=O)N5CCN(c6ccc(-c7ccc8cc7CNC(=O)[C@@H]7CCCN7[C@H](C(=O)NC(C)(C)C)[C@H](C)NC(=O)[C@H]([C@@H](C)O)NC(=O)[C@H](CC(=O)O)NC(=O)[C@H](CC(C)C)NC8=O)cc6)CC5)CC4)cc3)c(c2)CNC(=O)[C@@H]2CCCN2[C@H](C(=O)NC(C)(C)C)[C@H](C)NC(=O)[C@H]([C@@H](C)O)NC(=O)[C@H](CC(=O)O)NC1=O` [Compound 458], the pIC50 in assay [1] was 8.19; in assay [2] (setting [4]), 6.00; in assay [3], 8.82. The “Ratio Ramos/RPMI” value in assay [2] (setting [5]) is recorded as 23. In addition, in assay [3], the “ELISA Assay Ratio β1/β7” value is given as 0.2.

Take `CC(C)C[C@@H]1NC(=O)c2ccc(-c3ccc(N4CCN(C(=O)C56CC7CC(C5)CC(C(=O)N5CCN(c8ccc(-c9ccc%10cc9CNC(=O)[C@@H]9CCCN9[C@H](C(=O)NC(C)(C)C)[C@H](C)NC(=O)[C@H]([C@@H](C)O)NC(=O)[C@H](CC(=O)O)NC(=O)[C@H](CC(C)C)NC%10=O)cc8)CC5)(C7)C6)CC4)cc3)c(c2)CNC(=O)[C@@H]2CCCN2[C@H](C(=O)NC(C)(C)C)[C@H](C)NC(=O)[C@H]([C@@H](C)O)NC(=O)[C@H](CC(=O)O)NC1=O` [Compound 460]: the pIC50 is 7.85 in assay [1], 5.73 in assay [2] (setting [4]) and 9.00 in assay [3]. In addition, the “Ratio Ramos/RPMI” value in assay [2] (setting [5]) was 30. Further, the “ELISA Assay Ratio β1/β7” value in assay [3] was 0.1.

For `CC(C)C[C@@H]1NC(=O)c2ccc(-c3ccc(N4CCN(C(=O)c5cc(F)ccc5-c5ccc(F)cc5C(=O)N5CCN(c6ccc(-c7ccc8cc7CNC(=O)[C@@H]7CCCN7[C@H](C(=O)NC(C)(C)C)[C@H](C)NC(=O)[C@H]([C@@H](C)O)NC(=O)[C@H](CC(=O)O)NC(=O)[C@H](CC(C)C)NC8=O)cc6)CC5)CC4)cc3)c(c2)CNC(=O)[C@@H]2CCCN2[C@H](C(=O)NC(C)(C)C)[C@H](C)NC(=O)[C@H]([C@@H](C)O)NC(=O)[C@H](CC(=O)O)NC1=O` [Compound 475], the pIC50 in assay [1] was 7.96; in assay [3] it was 8.96.

As to `CC(C)C[C@@H]1NC(=O)c2ccc(-c3ccc(N4CCN(CCC(=O)N5CCN(c6ccc(-c7ccc8cc7CNC(=O)[C@@H]7CCCN7[C@H](C(=O)NC(C)(C)C)[C@H](C)NC(=O)[C@H]([C@@H](C)O)NC(=O)[C@H](CC(=O)O)NC(=O)[C@H](CC(C)C)NC8=O)cc6)CC5)CC4)cc3)c(c2)CNC(=O)[C@@H]2CCCN2[C@H](C(=O)NC(C)(C)C)[C@H](C)NC(=O)[C@H]([C@@H](C)O)NC(=O)[C@H](CC(=O)O)NC1=O` [Compound 482], the pIC50 is 6.08 in assay [2] (setting [4]) and 8.82 in assay [3].

`CC(C)C[C@@H]1NC(=O)c2ccc(-c3ccc(N4CCN(C(=O)CCC(=O)N5CCN(c6ccc(-c7ccc8cc7CNC(=O)[C@@H]7CCCN7[C@H](C(=O)NC(C)(C)C)[C@H](C)NC(=O)[C@H]([C@@H](C)O)NC(=O)[C@H](CC(=O)O)NC(=O)[C@H](CC(C)C)NC8=O)cc6)CC5)CC4)cc3)c(c2)CNC(=O)[C@@H]2CCCN2[C@H](C(=O)NC(C)(C)C)[C@H](C)NC(=O)[C@H]([C@@H](C)O)NC(=O)[C@H](CC(=O)O)NC1=O` [Compound 484]: the pIC50 in assay [1] was 8.25; in assay [3] it was 8.92.

Regarding `CC(C)C[C@@H]1NC(=O)c2ccc(-c3ccc(N4CCN(C(=O)c5ccccc5-c5ccccc5C(=O)N5CCN(c6ccc(-c7ccc8cc7CNC(=O)[C@@H]7CCCN7[C@H](C(=O)NC(C)(C)C)[C@H](C)NC(=O)[C@H]([C@@H](C)O)NC(=O)[C@H](CC(=O)O)NC(=O)[C@H](CC(C)C)NC8=O)cc6)CC5)CC4)cc3)c(c2)CNC(=O)[C@@H]2CCCN2[C@H](C(=O)NC(C)(C)C)[C@H](C)NC(=O)[C@H]([C@@H](C)O)NC(=O)[C@H](CC(=O)O)NC1=O` [Compound 517], the pIC50 in assay [1] was 8.12; in assay [3], 8.68.

For the compound `CC(C)C[C@@H]1NC(=O)c2ccc(-c3ccc(N4CCN(C(=O)c5cc(C(=O)N6CCN(c7ccc(-c8ccc9cc8CNC(=O)[C@@H]8CCCN8[C@H](C(=O)NC(C)(C)C)[C@H](C)NC(=O)[C@H]([C@@H](C)O)NC(=O)[C@H](CC(=O)O)NC(=O)[C@H](CC(C)C)NC9=O)cc7)CC6)cc(C(=O)N6CCN(c7ccc(-c8ccc9cc8CNC(=O)[C@@H]8CCCN8[C@H](C(=O)NC(C)(C)C)[C@H](C)NC(=O)[C@H]([C@@H](C)O)NC(=O)[C@H](CC(=O)O)NC(=O)[C@H](CC(C)C)NC9=O)cc7)CC6)c5)CC4)cc3)c(c2)CNC(=O)[C@@H]2CCCN2[C@H](C(=O)NC(C)(C)C)[C@H](C)NC(=O)[C@H]([C@@H](C)O)NC(=O)[C@H](CC(=O)O)NC1=O` [Compound 520], the pIC50 is 8.20 in assay [1] and 8.92 in assay [3].
